From publication PMC9202104 (BMC Biology, 2022)

Key:
[1] = biological target: T1, ZIKV NS2B-NS3 protein (Zika virus, UniProt Q32ZE1); assay: SPR binding to ZIKV NS2B-NS3
T1 construct: fused with the genes encoding NS3 protein (residues 1-185) through a linker (Gly4-Thr-Gly4); His6 (C); made in house; host or cells: E. coli
Procedure: (GE Healthcare, Port Washington, NY, USA). Briefly, ZIKV EDIII protein or NS2B-NS3 protein was immobilized on a sensor chip (CM5) using the Amine Coupling Kit (GE Healthcare). Serially diluted ST087010 was added as analytes, and HBS-EP with 10% DMSO (10 mM HEPES, 150 mM NaCl, 3 mM EDTA, 0.05% Tween-20, 10% DMSO, pH 7.4) was used as a running buffer. Biacore BK evaluation software (version 1.1) was applied to analyze the data, and the curve was fitted with a 1:1 binding model.

[2] = system: ZIKV human strain R116265; assay: ZIKV vertical transmission in pregnant Ifnar1−/− mice; assay type: in vivo; conditions: 5 dpi
Procedure: Briefly, groups of 5 pregnant mice (10–12-week-old, E12-14) were i.p. injected with ST087010 (20 mg/kg of body weight, 200 μl/mouse), or DMSO (negative control), 12 h before and 6, 24, and 48 h after i.p. infection with ZIKV (human strain R116265, 10^3 PFU). Five days post-infection, mice were sacrificed; viral titers were assessed using plaque assay in the sera, placenta, fetal brain, and amniotic fluid, and uteri and fetuses were assessed for morphological and size changes. The placenta was also assessed for apoptosis and viral replication by immunofluorescence staining, as described below.
(§1) Immunofluorescence staining was carried out to detect ZIKV and caspase-3 signals in ZIKV-infected mouse tissues. Briefly, tissues were fixed in 4% formaldehyde, embedded in paraffin, and sectioned. The tissue sections were deparaffinized, fixed, and permed using the FIX and PERM Cell Permeabilization Kit (Thermo Fisher Scientific, Waltham, MA, USA). After blocking with 5% BSA, the tissue slides were incubated at 37°C 2 h with ZIKV EDIII-specific human mAb (ZV-67, 1:100, Absolute Antibody, Boston, MA, USA), or rabbit anti-active caspase-3 antibody (1:100, Abcam). The slides were washed with PBS and incubated for 30 min with anti-human FITC antibody (1:100, for ZIKV), or anti-rabbit Alexa Fluor 647 antibody (1:100, for caspase-3). The slides were then counterstained for nuclei, using DAPI (300 nM, Thermo Fisher Scientific, Waltham, MA, USA) for 5 min, and mounted in VectaMount Permanent Mounting Medium (Vector Laboratories, CA, USA). The slides were analyzed using a confocal microscope (Zeiss LSM 880) and ZEN software, and fluorescent signals were quantified by ImageJ software.

[3] = system: ZIKV human strain PAN2016; assay: ZIKV challenge in adult Ifnar1−/− mice, tissue viral titers and immunofluorescence; assay type: in vivo; conditions: 5 dpi
Procedure: (§2) Briefly, 7–8-week-old male mice were used, and two separate experiments were performed. […] These mice were i.p. infected with ZIKV (human strain R103451, 200 PFU/mouse) and observed daily for weight changes and survival until 21 dpi. […] Five days later, these mice were sacrificed, and their tissues, including the heart, testis, eye, kidney, and brain, were collected for detection of viral titers by plaque assay, or apoptosis by immunofluorescence staining. Mice losing 20% of initial weight with severe symptoms, including hind limb weakness and paralysis, or 25% of initial weight, were humanely euthanized with an overdose isoflurane in a Bell Jar, followed by cervical dislocation.
Plaque assay was used to detect viral titers in ZIKV-infected tissues. Briefly, tissues were homogenized with cold culture medium (DMEM + 2% FBS) and then centrifuged (2000 g at 4°C for 10 min). Supernatants were serially diluted to infect Vero E6 cells in 24-well plates. ZIKV titers in tissues were measured from ~40 mg of samples; thus, the detection limit was about 25 PFU/g of tissues.
as §1

[4] = system: DENV-4-PR-06-65-740; assay: Plaque assay, inhibition of DENV-4 infection in LLC-MK2 cells; assay type: cell-based; conditions: Dengue virus, DENV4
[5] = system: ZIKV human strain R103451; assay: Lethal ZIKV challenge in adult Ifnar1−/− mice, survival and weight; assay type: in vivo
Procedure: as §2

[6] = system: DENV-3-V1043; assay: Plaque assay, inhibition of DENV-3 infection in LLC-MK2 cells; assay type: cell-based; conditions: Dengue virus, DENV3
[7] = system: ZIKV human strain PAN2015; assay: Plaque assay, inhibition of ZIKV infection (strain PAN2015); assay type: cell-based; conditions: Zika virus, Vero C1008, Vero E6 cells
Procedure: (§3) After removal of the unbound compounds by centrifugation (after addition of 3% PEG-6000), ZIKV was incubated with Vero E6 cells in 24-well plates at 37°C for 1 h. The cells were then washed with PBS, overlaid with DMEM containing 1% carboxymethyl cellulose and 2% FBS, and cultured at 37°C for 4–5 days, followed by being stained with 0.5% crystal violet. […] Plaques in each well were calculated, and IC50 of compounds for each compound was calculated using the CalcuSyn computer program.

[8] = system: ZIKV human strain FLR; assay: Plaque assay, inhibition of ZIKV infection (strain FLR); assay type: cell-based; conditions: Zika virus, Vero C1008; plaque assay, Vero E6 cells, human strain; read-out: IC50 FLR
Procedure: as §3

[9] = system: ZIKV human strain PLCal_ZV; assay: Plaque assay, inhibition of ZIKV infection (strain PLCal_ZV); assay type: cell-based; conditions: Zika virus, Vero C1008; plaque assay, Vero E6 cells, human strain; read-out: IC50 PLCal_ZV
Procedure: as §3

[10] = system: ZIKV mosquito strain MEX 2-81; assay: Plaque assay, inhibition of ZIKV infection (strain MEX 2-81); assay type: cell-based; conditions: Zika virus, Vero C1008; plaque assay, Vero E6 cells, mosquito strain; read-out: IC50 MEX 2-81
Procedure: as §3

[11] = immunofluorescence, compared to DMSO

T1 sequence (Q32ZE1 1499-1683, added parts left off, change not shown): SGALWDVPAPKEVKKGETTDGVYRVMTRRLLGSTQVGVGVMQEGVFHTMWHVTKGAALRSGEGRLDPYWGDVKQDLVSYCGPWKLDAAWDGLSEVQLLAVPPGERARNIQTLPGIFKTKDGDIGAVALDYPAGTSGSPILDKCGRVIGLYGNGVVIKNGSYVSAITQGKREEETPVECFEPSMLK

## Cc1cc2c(C(C)C)c(O)c(O)c(/C=N/n3c(=O)[nH][nH]c3=O)c2c(O)c1-c1c(C)cc2c(C(C)C)c(O)c(O)c(/C=N/n3c(=O)[nH][nH]c3=O)c2c1O [ST087010]
[1]
  Kd: 19900 nM
[2]; [11]
  Staining of ZIKV+ or caspase-3 signals in placental tissues: undetectable, or diminished
[2]; pregnant mice, 20 mg/kg i.p., ZIKV R116265 10^3 PFU, compared to DMSO
  Viral titers in sera, placenta, fetal brain, and amniotic fluid: significantly reduced
[2]; pregnant mice, 20 mg/kg i.p., ZIKV R116265
  Condition of fetuses: all in good condition
[3]; 20 mg/kg i.p., ZIKV PAN2016 200 PFU, compared to gossypol or DMSO-treated mice
  Viral titers in the heart, testis, eye, kidney, and brain: significantly reduced
[3]; immunofluorescence
  ZIKV+ signals in eye and testis tissues: undetectable
[3]; [11]
  Caspase-3 staining in eye and testis tissues: undetectable, or diminished
[4]
  IC50: 2980 ± 180 nM
[5]; 20 mg/kg i.p. 12 h before and 6, 24, 48 h post-infection, ZIKV R103451 200 PFU, observed 21 days
  Mice protected from death (survival): 50%
[5]; 20 mg/kg i.p., ZIKV R103451 200 PFU, ST087010 figure during 6–12 dpi
  Weight loss: less than 25%
[5]; 20 mg/kg i.p., ZIKV R103451, until 21 dpi
  Body weight relative to weight before the virus infection: 85%
[6]
  IC50: 3330 ± 80 nM
[7]
  IC50: 3500 nM
[8]
  IC50: 2800 nM
[9]
  IC50: 2200 nM
[10]
  IC50: 2900 nM
